What was measured:
human SCD1 = target: T1, human SCD1 (Homo sapiens, UniProt O00767); experiment: Growth inhibition of yeast strain expressing human SCD1 as sole desaturase (OLE1 deleted), OD600 readout; assay type: cell-based; conditions: yeast strain expressing human SCD1 as sole desaturase; growth (OD600) after 40 h at 30° C.; read-out: SCD1 IC50
T1 construct: expressed in transfected cells; host or cells: yeast strain with OLE1 deleted, plasmid-borne human SCD1 (selected in SD-Ura)
T1 sequence (O00767 1-359): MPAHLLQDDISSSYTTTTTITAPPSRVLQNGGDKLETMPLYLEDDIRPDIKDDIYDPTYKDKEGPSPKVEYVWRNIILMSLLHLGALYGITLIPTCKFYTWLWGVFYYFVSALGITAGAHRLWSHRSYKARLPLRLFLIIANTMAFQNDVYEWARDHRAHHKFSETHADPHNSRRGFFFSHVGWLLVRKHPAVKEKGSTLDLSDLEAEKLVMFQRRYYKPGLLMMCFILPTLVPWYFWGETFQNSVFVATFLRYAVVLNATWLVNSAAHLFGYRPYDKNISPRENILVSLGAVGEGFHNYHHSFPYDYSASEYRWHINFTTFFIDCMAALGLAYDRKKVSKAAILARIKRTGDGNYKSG

human SCD5 = target: T2, human SCD5 (Homo sapiens, UniProt Q86SK9); experiment: Growth inhibition of yeast strain expressing human SCD5 as sole desaturase (OLE1 deleted), OD600 readout; assay type: cell-based; conditions: yeast strain expressing human SCD5 as sole desaturase; growth (OD600) after 40 h at 30° C.; read-out: SCD5 IC50
T2 construct: expressed in transfected cells; host or cells: yeast strain with OLE1 deleted, plasmid-borne human SCD5 (selected in SD-Ura)
T2 sequence (Q86SK9 1-330): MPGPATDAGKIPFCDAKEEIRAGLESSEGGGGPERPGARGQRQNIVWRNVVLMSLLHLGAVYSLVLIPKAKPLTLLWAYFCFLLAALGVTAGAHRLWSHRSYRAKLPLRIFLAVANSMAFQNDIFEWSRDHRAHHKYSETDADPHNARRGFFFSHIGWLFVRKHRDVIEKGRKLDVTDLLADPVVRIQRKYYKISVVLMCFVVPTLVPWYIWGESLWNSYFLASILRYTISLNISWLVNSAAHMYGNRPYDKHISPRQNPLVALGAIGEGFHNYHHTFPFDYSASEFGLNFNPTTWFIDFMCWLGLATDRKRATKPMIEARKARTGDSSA

N#Cc1cc(F)cc(Cc2ccc(NC(=O)c3cncc(CO)c3)nc2)c1 [Compound 628]
IC50 (human SCD1): 190 nM
IC50 (human SCD5): 30 nM

N#Cc1ccc(C(=O)Nc2ccc(Cc3cc(F)ccc3F)cn2)cn1 [Compound 629]
IC50 (human SCD1): 3300 nM
IC50 (human SCD5): 250 nM

Cn1ccc(C(=O)Nc2ccc(Cc3cc(F)ccc3F)cn2)cc1=O [Compound 630]
IC50 (human SCD1): 1100 nM
IC50 (human SCD5): 320 nM

O=C(Nc1ncc(Br)cn1)c1ccc(Cc2cccc(F)c2)cn1 [Compound 631]
IC50 (human SCD1): 650 nM
IC50 (human SCD5): 2200 nM

O=C(Nc1ccc(Cc2cccc(F)c2)cn1)c1csc(Br)n1 [Compound 632]
IC50 (human SCD1): > 45000 nM
IC50 (human SCD5): 70 nM

O=C(Nc1ccc(Cc2cccc(F)c2)cn1)c1cscn1 [Compound 633]
IC50 (human SCD1): 1800 nM
IC50 (human SCD5): 270 nM

COc1cc(Cc2ccc(NC(=O)c3cnc(Cl)cn3)nc2)ccc1F [Compound 634]
IC50 (human SCD1): > 45000 nM
IC50 (human SCD5): 280 nM

O=C(Nc1ccc(Cc2cc(F)cc(F)c2)cn1)c1cnc(Cl)cn1 [Compound 635]
IC50 (human SCD1): > 45000 nM
IC50 (human SCD5): 62 nM

N#Cc1cnc(C(=O)Nc2ccc(Cc3cccc(F)c3)cn2)c(F)c1 [Compound 636]
IC50 (human SCD1): > 45000 nM
IC50 (human SCD5): 142 nM

O=C(Nc1ccc(C=C2CCOCC2)cn1)c1ccc(CO)nc1 [Compound 637]
IC50 (human SCD1): 12000 nM
IC50 (human SCD5): 8100 nM

COc1cc(Cc2ccc(NC(=O)c3cnc(C#N)cn3)nc2)ccc1F [Compound 638]
IC50 (human SCD1): 3200 nM
IC50 (human SCD5): 98 nM

N#Cc1cnc(C(=O)Nc2ccc(Cc3cc(F)cc(F)c3)cn2)cn1 [Compound 639]
IC50 (human SCD1): 490 nM
IC50 (human SCD5): 39 nM

N#Cc1nc(C(=O)Nc2ccc(Cc3cccc(F)c3)cn2)cs1 [Compound 640]
IC50 (human SCD1): 3200 nM
IC50 (human SCD5): 1300 nM

Cn1nc(C(=O)Nc2ccc(Cc3cc(C#N)ccc3F)cn2)ccc1=O [Compound 641]
IC50 (human SCD1): > 45000 nM
IC50 (human SCD5): 540 nM

Cn1cc(C(=O)Nc2ccc(Cc3cccc(F)c3)cn2)n(C)c1=O [Compound 642]
IC50 (human SCD1): 92 nM
IC50 (human SCD5): 10 nM

Cn1cc(C(=O)Nc2ccc(Cc3ccc(F)c(F)c3)cn2)n(C)c1=O [Compound 643]
IC50 (human SCD1): 72 nM
IC50 (human SCD5): 10 nM

Cn1cc(C(=O)Nc2ccc(Cc3cc(F)cc(F)c3)cn2)n(C)c1=O [Compound 644]
IC50 (human SCD1): 42 nM
IC50 (human SCD5): 10 nM

O=C(Nc1ccc(Cc2cccc(F)c2)cn1)c1coc(Cl)n1 [Compound 645]
IC50 (human SCD1): 1300 nM
IC50 (human SCD5): 210 nM

N#Cc1cc(F)cc(Cc2ccc(NC(=O)c3cnc(Cl)cn3)nc2)c1 [Compound 646]
IC50 (human SCD1): > 45000 nM
IC50 (human SCD5): 140 nM

Cn1cc(C(=O)Nc2ccc(C3(c4ccc(F)c(F)c4)CC3)cn2)ccc1=O [Compound 647]
IC50 (human SCD1): 9300 nM
IC50 (human SCD5): 2400 nM

Cn1cc(C(=O)Nc2ccc(Cc3cc(C#N)ccc3F)cn2)ccc1=O [Compound 648]
IC50 (human SCD1): > 45000 nM
IC50 (human SCD5): 990 nM

COc1ncc(C(=O)Nc2ccc(Cc3cccc(Cl)c3)cn2)cn1 [Compound 649]
IC50 (human SCD1): 1400 nM
IC50 (human SCD5): 480 nM

O=C(Nc1ccc(Cc2ccc(F)c(F)c2)cn1)c1ccncc1 [Compound 650]
IC50 (human SCD1): 170 nM
IC50 (human SCD5): 56 nM

O=C(Nc1ccc(Cc2cc(F)cc(F)c2)cn1)c1ccncc1 [Compound 651]
IC50 (human SCD1): 90 nM
IC50 (human SCD5): 24 nM

Cn1cc(C(=O)Nc2ccc(Cc3cccc(Cl)c3)cn2)cnc1=O [Compound 652]
IC50 (human SCD1): 1900 nM
IC50 (human SCD5): 86 nM

Cn1nc(C(=O)Nc2ccc(C3(c4ccc(F)c(F)c4)CC3)cn2)ccc1=O [Compound 653]
IC50 (human SCD1): > 45000 nM
IC50 (human SCD5): 1400 nM

N#Cc1cnc(C(=O)Nc2ccc(Cc3ccc(F)c(C#N)c3)cn2)cn1 [Compound 654]
IC50 (human SCD1): 1900 nM
IC50 (human SCD5): 56 nM

N#Cc1cc(F)cc(Cc2ccc(NC(=O)c3cnc(C#N)cn3)nc2)c1 [Compound 655]
IC50 (human SCD1): 360 nM
IC50 (human SCD5): 35 nM

N#Cc1cc(F)cc(Cc2ccc(NC(=O)c3ccnnc3)nc2)c1 [Compound 656]
IC50 (human SCD1): 220 nM
IC50 (human SCD5): 110 nM

O=C(Nc1ccc(Cc2cc(F)cc(F)c2)cn1)c1cnnc(Cl)c1 [Compound 657]
IC50 (human SCD1): 10 nM
IC50 (human SCD5): 10 nM

Cn1nc(C(=O)Nc2ccc(COc3cc(F)cc(F)c3)cn2)ccc1=O [Compound 658]
IC50 (human SCD1): 1600 nM
IC50 (human SCD5): 180 nM

O=C(Nc1ccc(Cc2cc(F)cc(Cl)c2)cn1)c1cnc(Cl)cn1 [Compound 659]
IC50 (human SCD1): 350 nM
IC50 (human SCD5): 55 nM

Cn1cc(C(=O)Nc2ccc(N3CC(Oc4cccc(Cl)c4)C3)cn2)ccc1=O [Compound 660]
IC50 (human SCD1): > 45000 nM
IC50 (human SCD5): 8900 nM

N#Cc1cnc(C(=O)Nc2ccc(Cc3cc(F)cc(Cl)c3)cn2)cn1 [Compound 661]
IC50 (human SCD1): 180 nM
IC50 (human SCD5): 10 nM

N#Cc1cc(C(=O)Nc2ccc(Cc3cc(F)cc(F)c3)cn2)cnn1 [Compound 662]
IC50 (human SCD1): 300 nM
IC50 (human SCD5): 180 nM

Cc1cc(C(=O)Nc2ccc(Cc3cc(F)cc(C#N)c3)cn2)cnc1C#N [Compound 663]
IC50 (human SCD1): > 45000 nM
IC50 (human SCD5): 39 nM

Cn1nc(C(=O)Nc2ccc(COc3ccc(F)c(F)c3)cn2)ccc1=O [Compound 664]
IC50 (human SCD1): 31000 nM
IC50 (human SCD5): 900 nM

Cc1cc(C(=O)Nc2ccc(Cc3cc(F)cc(C#N)c3)cn2)cnc1Cl [Compound 665]
IC50 (human SCD1): > 45000 nM
IC50 (human SCD5): 490 nM

N#Cc1cc(F)cc(Cc2ccc(NC(=O)c3ccnc(Cl)n3)nc2)c1 [Compound 666]
IC50 (human SCD1): 3600 nM
IC50 (human SCD5): 290 nM

Cn1nc(C(=O)Nc2ccc(COc3ccc(Cl)c(F)c3)cn2)ccc1=O [Compound 667]
IC50 (human SCD1): > 45000 nM
IC50 (human SCD5): 310 nM

Cn1cc(C(=O)Nc2ccc(Cc3cc(F)cc(Cl)c3)cn2)n(C)c1=O [Compound 668]
IC50 (human SCD1): 10 nM
IC50 (human SCD5): 10 nM

N#Cc1cc(Cl)cc(Cc2ccc(NC(=O)c3ccnnc3)nc2)c1 [Compound 669]
IC50 (human SCD1): 220 nM
IC50 (human SCD5): 73 nM

Cn1nc(C(=O)Nc2ccc(COc3ccc(Cl)cc3)cn2)ccc1=O [Compound 670]
IC50 (human SCD1): > 45000 nM
IC50 (human SCD5): 1800 nM

Cn1nc(C(=O)Nc2ccc(COc3cc(Cl)cc(C#N)c3)cn2)ccc1=O [Compound 671]
IC50 (human SCD1): > 45000 nM
IC50 (human SCD5): 2000 nM

Cn1cc(C(=O)Nc2ccc(Cc3cc(F)cc(F)c3)cn2)ncc1=O [Compound 672]
IC50 (human SCD1): 500 nM
IC50 (human SCD5): 420 nM

CNC(=O)c1ccnc(C(=O)Nc2ccc(Oc3ccccc3Cl)cn2)c1 [Compound 675]
IC50 (human SCD1): > 45000 nM
IC50 (human SCD5): 12000 nM

Cc1cc(C(=O)Nc2ccc(Cc3cc(F)cc(F)c3)cn2)cn(C)c1=O [Compound 676]
IC50 (human SCD1): 83 nM
IC50 (human SCD5): 10 nM

N#Cc1cc(Cl)cc(Cc2ccc(NC(=O)c3cnc(C#N)cn3)nc2)c1 [Compound 677]
IC50 (human SCD1): > 45000 nM
IC50 (human SCD5): 79 nM

CNC(=O)c1ccnc(NC(=O)c2ccc(Oc3ccccc3Cl)cn2)c1 [Compound 678]
IC50 (human SCD1): 320 nM
IC50 (human SCD5): 380 nM

Cc1cc(C(=O)Nc2ccc(Cc3ccc(F)c(F)c3)cn2)cn(C)c1=O [Compound 679]
IC50 (human SCD1): 570 nM
IC50 (human SCD5): 10 nM

Cn1nc(C(=O)Nc2ccc(Cc3cc(F)cc(F)c3Cl)cn2)ccc1=O [Compound 680]
IC50 (human SCD1): 2700 nM
IC50 (human SCD5): 25 nM

O=C(Nc1ccc(Cc2cccc(Cl)c2)cn1)c1nnc(C(F)(F)F)o1 [Compound 681]
IC50 (human SCD1): > 45000 nM
IC50 (human SCD5): 2100 nM

O=C(NNC(=O)C(F)(F)F)C(=O)Nc1ccc(Cc2cccc(Cl)c2)cn1 [Compound 682]
IC50 (human SCD1): 100 nM
IC50 (human SCD5): 200 nM

N#Cc1nc(C(=O)Nc2ccc(Cc3cc(F)cc(F)c3)cn2)co1 [Compound 683]
IC50 (human SCD1): 8100 nM
IC50 (human SCD5): 3900 nM

CN1N=C(C(=O)Nc2ccc(Cc3cccc(Cl)c3)cn2)CCC1=O [Example 15, N-(5-(3-chlorobenzyl)pyridin-2-yl)-1-methyl-6-oxo-1,4,5,6-tetrahydropyridazine-3-carboxamide]
IC50 (human SCD1): > 45000 nM
IC50 (human SCD5): 450 nM

CN1N=C(C(=O)Nc2ccc(Cc3cccc(C(F)(F)F)c3)cn2)CCC1=O [Example 18, 1-methyl-6-oxo-N-(5-(3-(trifluoromethyl)benzyl)pyridin-2-yl)-1,4,5,6-tetrahydropyridazine-3-carboxamide]
IC50 (human SCD1): 8570 nM
IC50 (human SCD5): 1600 nM

CN1N=C(C(=O)Nc2ccc(Cc3ccc(Cl)c(Cl)c3)cn2)CCC1=O [Example 20, N-(5-(3,4-dichlorobenzyl)pyridin-2-yl)-1-methyl-6-oxo-1,4,5,6-tetrahydropyridazine-3-carboxamide]
IC50 (human SCD1): 220 nM
IC50 (human SCD5): 30 nM

CN1N=C(C(=O)Nc2ccc(Cc3ccc(Cl)s3)cn2)CCC1=O [Example 21, N-(5-((5-chlorothiophen-2-yl)methyl)pyridin-2-yl)-1-methyl-6-oxo-1,4,5,6-tetrahydropyridazine-3-carboxamide]
IC50 (human SCD1): > 45000 nM
IC50 (human SCD5): 1780 nM

From patent US20230078764A1 (Yumanity Therapeutics, Inc., priority 2019, published 2023)
